Paper PMC7464785 (Pharmaceutics, 2020)
Values joined by “and” are separate entries in the source; they are usually repeats but may differ in a detail not shown here. Identical values can stand only once. Like-named read-outs stand apart in the source and are kept apart here.

Tests used:
[1] = Pharmacokinetics after oral administration to control, G-ARF and C-ARF rats; type: in vivo, Sprague–Dawley rats; conditions: for CL renal: read-out: CLR (time-averaged renal clearance); for bioavailability: read-out: F (absolute oral bioavailability)
Description: (§1) Rats were randomly divided into three groups: control, G-ARF, and C-ARF rats. Acute renal failure was induced in rats by intraperitoneal injection of gentamicin (100 mg/kg, dissolved in 0.9% NaCl-injectable solution) daily for 8 days or by a single intraperitoneal injection of cisplatin (7.5 mg/kg, dissolved in 0.9% NaCl-injectable solution), while control rats were injected with 0.9% NaCl-injectable solution only. […] BUN (Blood urea nitrogen) levels were measured in rats on the last day of induction using a BUN detection kit (Asan Pharmaceutical, Seoul, Korea). Rats with a urea nitrogen level of 36 mg/dL or higher were considered to be acute renal failure-induced and were selected for the study.
(§2) For oral and intravenous administration, pretreatment and surgical procedures were performed as previously reported. For oral study, the rats were restricted from eating food overnight but water was freely accessible. The next day, after anesthesia with ketamine at a dose of 100 mg/kg, polyethylene 50 tubes (Clay Adams, Parsippany, NJ, USA) was cannulated into the carotid artery for blood collection. For intravenous study, polyethylene 50 tubes were cannulated into the carotid artery and jugular vein for blood collection and drug administration, respectively. After surgery, rats were allowed to rest for 2–3 h to recover from anesthesia and were free in the individual metabolic cage during the experiment.
Blood samples (110 µL) were collected through the carotid artery at 0 (prior to drug administration), 5, 15, 30, 45, 60, 90, 120, 180, 240, 360, 480, 600, and 720 min. At 24 h after drug administration, urine and gastrointestinal tract samples were collected and handled similarly to those in the intravenous study.
(§3) A 50-μL aliquot of biological sample was mixed with 1 μL hydrocortisone (5 mg/mL); then, 20 μL of 20% ammonia solution was added, mixed with a vortex-mixer (Scientific Industries, Bohemia, NY, USA) for 30 s, and extracted with 750 µL ethyl acetate. The organic layer was collected, evaporated on a thermobath (Eyela, Tokyo, Japan) under a gentle stream of nitrogen gas at 40 °C and redissolved by adding 130 µL 20% acetonitrile, and 50 µL of each reconstituted sample was analyzed by HPLC [12, 22].
(§4) The reconstituted biological samples were filtered through a 0.45-µm filter (Millipore, Billerica, MA, USA) and analyzed with a reversed-phase column (C18; 25 cm × 4.6 mm, 5 µm; Young Jin Biochrom, Seongnam, Korea) using a UV detector at 287 nm. The mobile phase consisted of 10 mM ammonium acetate buffer (pH 5.0) and acetonitrile at a ratio of 69.5:30.5 (v/v) with a flow rate of 1.0 mL/min.
(§5) To estimate pharmacokinetic parameters such as terminal half-life, the apparent volume of distribution at steady state (Vss), area under plasma concentration-time curves from time zero to time infinity (AUC), mean residence time (MRT), and time-averaged total body (CL), and renal (CLR) and nonrenal (CLNR) clearances, standard methods were applied using noncompartmental analysis (WinNonlin, Pharsight Corporation, Mountain View, CA, USA). AUCs were calculated using the trapezoidal rule-extrapolation method. The peak plasma concentration (Cmax) and time that the plasma concentration was peak (Tmax) were directly confirmed from plasma concentration-time curves. To calculate the average values of clearances, terminal half-life, and Vss, the harmonic mean method was applied.

plasma proteins [2] = test: Plasma protein binding by equilibrium dialysis; type: in vitro ADME; conditions: plasma from control, G-ARF and C-ARF rats; data not shown
[3] = cited from earlier work
[4] = Pharmacokinetics after 1-min intravenous infusion to control, G-ARF and C-ARF rats; type: in vivo, Sprague–Dawley rats; conditions: for CLR estimated from free (unbound to plasma proteins) fractions in plasma: based on 20.7% plasma protein binding; for MRT / clearance / CL renal / half-life / Vd / AUC: Sprague-Dawley, rat, plasma, iv, 10 mg/kg; for clearance: read-out: CL (time-averaged total body clearance); for CL renal: read-out: CLR (time-averaged renal clearance); for half-life: read-out: Terminal half-life; for Vd: read-out: Vss; for AUC: time zero to infinity
Description: as §1, §2
Blood samples (110 μL) were collected through the carotid artery at 0 (prior to drug infusion), 1 (at the end of drug infusion), 5, 15, 30, 45, 60, 90, 120, 180, 240, 360, 480, 600, and 720 min and were centrifuged at 8000 × g for 1 min. […] After collecting each blood sample, 0.3 mL of heparinized 0.9% NaCl-injectable solution (10 IU/mL) was immediately administered to the carotid artery to prevent blood clotting. At 24 h, the rat’s abdomen was open and the entire gastrointestinal tract was removed, transferred to a beaker with 50 mL of methanol, and cut into small pieces.
At 24 h after drug administration, urine samples were also collected. The metabolic cage was rinsed with 20 mL of distilled water, which was combined with the 24-h urine sample.
as §3, §4
as §5, with “curves.” for “curves. To calculate the average values of clearances, terminal half-life, and Vss, the harmonic mean method was applied.”

[5] = intravenous doses over 20 mg/kg and oral doses over 50 mg/kg; cited from earlier work
plasma proteins [6] = conditions: equilibrium dialysis; cited from earlier work
[7] = Sprague-Dawley, rat, plasma, po, 20 mg/kg, C-ARF rats
[8] = Sprague-Dawley, rat, plasma, po, 20 mg/kg, G-ARF rats
[9] = Sprague-Dawley, rat, plasma, po, 20 mg/kg, control rats
[10] = control rats, oral 20 mg/kg, 20 mg/kg
[11] = hepatic microsomes of G-ARF rats, not significantly different

## C[C@@H]1CCN(C(=O)CC#N)C[C@@H]1N(C)c1ncnc2[nH]ccc12 [tofacitinib, Tofacitinib]
[1]; C-ARF rats, oral 20 mg/kg
  Ae0–24 h (dose excreted in the 24-h urine): 1.16 ± 1.37 % of dose
  decrease of Ae0–24 h versus control rats: 81.3%
  increase of AUC versus control rats: 247%
  increase of Cmax versus control rats: 141%
[1]; C-ARF rats, oral 20 mg/kg, 20 mg/kg
  GI24 h (dose remaining in the gastrointestinal tract at 24 h): 0.505 % of dose and 0.505 ± 0.535 % of dose
[1]; G-ARF rats, oral 20 mg/kg
  Ae0–24 h (dose excreted in the 24-h urine): 4.82 ± 3.06 % of dose
  decrease of Ae0–24 h versus control rats: 22.4%
  decrease of CLR versus control rats: 69.8%
  increase of AUC versus control rats: 142%
  increase of Cmax versus control rats: 198%
[1]; G-ARF rats, oral 20 mg/kg, 20 mg/kg
  GI24 h (dose remaining in the gastrointestinal tract at 24 h): 1.27 % of dose and 1.27 ± 1.72 % of dose
[1]; [7]
  AUC: 12500 ng·h/mL
  Tmax: 41.3 min
  CL renal: 0.3 ± 0.495 mL/min/kg
  bioavailability: 54.3%
[1]; Sprague-Dawley, rat, plasma, po, 20 mg/kg, C-ARF rats, read-out: Cmax
  Cmax: 4200 ± 3030 ng/mL
[1]; [8]
  AUC: 8750 ng·h/mL
  Tmax: 30.8 min
  CL renal: 1.71 ± 0.871 mL/min/kg
  bioavailability: 60.7%
[1]; Sprague-Dawley, rat, plasma, po, 20 mg/kg, G-ARF rats, read-out: Cmax
  Cmax: 5180 ± 2590 ng/mL
[1]; [9]
  AUC: 3620 ng·h/mL
  Tmax: 71.9 min
  CL renal: 5.66 ± 1.03 mL/min/kg
  bioavailability: 41.3%
[1]; across control, G-ARF and C-ARF rats, oral 20 mg/kg
  GI24 h: less than 1.27 % of oral dose
[1]; control rats, oral 20 mg/kg
  Cmax: 1740 ± 606 ng/mL
[1]; [10]
  Ae0–24 h (dose excreted in the 24-h urine): 6.21 % of dose and 6.21 ± 1.12 % of dose
  GI24 h (dose remaining in the gastrointestinal tract at 24 h): 0.231 % of dose and 0.231 ± 0.235 % of dose
Plasma proteins [2]
  free fractions in the plasma, comparison of groups: comparable
[3]; healthy volunteers, oral 10 mg
  half-life: 192 min
  oral dose bound to plasma protein: Approximately 40%
  volume of distribution: 87 L
[3]; human
  Absolute oral bioavailability (F): approximately 74%
Hepatic microsomes; hepatic microsomes of C-ARF rats, not significantly different
  decrease of Vmax for the disappearance of tofacitinib versus control rats: 28.7%
Hepatic microsomes; hepatic microsomes of C-ARF rats, significantly lower
  decrease of CLint for the disappearance of tofacitinib versus control rats: 54.4%
Hepatic microsomes; [11]
  decrease of CLint for the disappearance of tofacitinib versus control rats: 31.1%
  decrease of Vmax for the disappearance of tofacitinib versus control rats: 9.52%
Hepatic microsomes; hepatic microsomes of control, G-ARF and C-ARF rats
  Km values, comparison of groups: comparable among the three groups
[4]; C-ARF rats, iv 10 mg/kg
  Ae0–24 h (dose excreted in the 24-h urine): 0.458 ± 0.626 % of dose
  GI24 h (dose remaining in the gastrointestinal tract at 24 h): 0.195 ± 0.157 % of dose
  decrease of Ae0–24 h versus control rats: 95.2%
  decrease of CL versus control rats: 62.3%
  decrease of CLNR versus control rats: 57.4%
  decrease of CLR versus control rats: 98.6%
  increase of AUC versus control rats: 163%
  increase of MRT versus control rats: 154%
  increase of terminal half-life versus control rats: 240%
  CLR estimated from free (unbound to plasma proteins) fractions in plasma: 0.0856 mL/min/kg
[4]; G-ARF rats, iv 10 mg/kg
  Ae0–24 h (dose excreted in the 24-h urine): 5.92 ± 2.76 % of dose
  GI24 h (dose remaining in the gastrointestinal tract at 24 h): 0.00919 ± 0.0225 % of dose
  decrease of Ae0–24 h versus control rats: 37.7%
  decrease of CL versus control rats: 37.7%
  decrease of CLNR versus control rats: 33.2%
  decrease of CLR versus control rats: 69.5%
  increase of AUC versus control rats: 64.0%
  increase of MRT versus control rats: 96.7%
  increase of terminal half-life versus control rats: 78.7%
  CLR estimated from free (unbound to plasma proteins) fractions in plasma: 1.83 mL/min/kg
[4]; C-ARF rats
  MRT: 69.1 min
  clearance: 14.7 ± 2.29 mL/min/kg
  CL renal: 0.0679 ± 0.0917 mL/min/kg
  half-life: 134 ± 40.9 min
  Vd: 1 ± 0.558 L/kg
  AUC: 11600 ng·h/mL
[4]; G-ARF rats
  MRT: 53.5 min
  clearance: 24.3 ± 6.95 mL/min/kg
  CL renal: 1.45 ± 1.54 mL/min/kg
  half-life: 70.4 ± 29.6 min
  Vd: 1.17 ± 0.519 L/kg
  AUC: 7220 ng·h/mL
[4]; control rats
  MRT: 27.2 min
  clearance: 39 ± 7.97 mL/min/kg
  half-life: 39.4 ± 11.3 min
  Vd: 1.04 ± 0.402 L/kg
  AUC: 4400 ng·h/mL
[4]; control rats, iv 10 mg/kg
  Ae0–24 h (dose excreted in the 24-h urine): 9.51 ± 0.879 % of dose
  CLR (time-averaged renal clearance): 4.75 ± 1.28 mL/min/kg
  GI24 h (dose remaining in the gastrointestinal tract at 24 h): 0.153 ± 0.306 % of dose
  CLR estimated from free (unbound to plasma proteins) fractions in plasma: 5.99 mL/min/kg
[5]
  dose proportionality of AUCs: not dose proportional
Plasma proteins [6]
  plasma protein binding: 20.7%
